This passage reports pest or weed control results from US20120202690A1, “HERBICIDAL COMPOUNDS” (SYNGENTA LIMITED, priority 2009, published 2012).

Type in all cases: in vivo
The test system of test [1] is Alopecurus myosuroides (ALOMY). In words: Post-emergence biological efficacy, glasshouse, 500 or 1000 g/ha, evaluated after 13 days (100=total damage to plant; 0=no damage to plant). The conditions noted are these: Alopecurus myosuroides, 312 h, rate 1,000 g/ha, read-out: Percentage damage caused to weed species, post-emergence, ALOMY. The method, boiled down:
(§1)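 Damage is scored on pot-grown plants, sown in standard soil and sprayed after emergence, that were held post-treatment in a glasshouse (24/16° C. day/night, 14 hours light, 65% humidity).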

In test [2] the test system is Echinochloa crusgaffi (ECHCG). The test is described as above. The conditions noted are these: Echinochloa, 312 h, rate 1,000 g/ha, read-out: Percentage damage caused to weed species, post-emergence, ECHCG. The method, boiled down: as §1
The test system of test [3] is Solanum nigrum (SOLNI). The test is described as above. The conditions noted are these: Solanum nigrum, 312 h, rate 1,000 g/ha, read-out: Percentage damage caused to weed species, post-emergence, SOLNI. A digest of the protocol: as §1
Test [4] relates to Setaria faberi (SETFA). The test is described as above. The conditions noted are these: Setaria faberi, 312 h, rate 1,000 g/ha, read-out: Percentage damage caused to weed species, post-emergence, SETFA. A digest of the protocol: as §1
Test [5] has as its system Amaranthus retroflexus (AMARE). Described as above. The conditions noted are these: Amaranthus retroflexus, 312 h, rate 1,000 g/ha, read-out: Percentage damage caused to weed species, post-emergence, AMARE. A digest of the protocol:
as §1

Test [6] has as its system Ipomoea hederaceae (IPOHE). Described as above. The conditions noted are these: Ipomoea, 312 h, rate 1,000 g/ha, read-out: Percentage damage caused to weed species, post-emergence, IPOHE. The method, boiled down: as §1
In test [7] the test system is Alopecurus myosuroides (ALOMY). Briefly: Pre-emergence biological efficacy, glasshouse, 1000 g/ha, evaluated after 13 days (100=total damage to plant; 0=no damage to plant). The conditions noted are these: Alopecurus myosuroides, 312 h, rate 1,000 g/ha, read-out: Percentage damage caused to weed species, pre-emergence, ALOMY. A digest of the protocol:
(§2)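 Seeds were sown in standard soil in pots, then grown in a controlled glasshouse at 24/16° C. day/night, 14 hours light and 65% humidity, with watering twice daily.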

The subject of test [8] is Solanum nigrum (SOLNI). The description is as above. The conditions noted are these: Solanum nigrum, 312 h, rate 1,000 g/ha, read-out: Percentage damage caused to weed species, pre-emergence, SOLNI. A digest of the protocol: as §2
Test [9] deals with Echinochloa crus-galli (ECHCG). The description is as above. The conditions noted are these: Echinochloa crus-galli, 312 h, rate 1,000 g/ha, read-out: Percentage damage caused to weed species, pre-emergence, ECHCG. The method, boiled down: as §2
For test [10], the system named is Setaria faberi (SETFA). Described as above. The conditions noted are these: Setaria faberi, 312 h, rate 1,000 g/ha, read-out: Percentage damage caused to weed species, pre-emergence, SETFA. The method, boiled down:
as §2

For test [11], the system named is Amaranthus retroflexus (AMARE). Described as above. The conditions noted are these: Amaranthus retroflexus, 312 h, rate 1,000 g/ha, read-out: Percentage damage caused to weed species, pre-emergence, AMARE. A digest of the protocol: as §2
Test [12] relates to Ipomoea hederaceae (IPOHE). The description is as above. The conditions noted are these: Ipomoea, 312 h, rate 1,000 g/ha, read-out: Percentage damage caused to weed species, pre-emergence, IPOHE. A digest of the protocol:
as §2

Consider `COC(=O)c1nc(C2CC2)nc2[nH]c(C)cc12` [Compound 1-6, 2-cyclopropyl-4-methoxycarbonyl-6-methyl-7H-pyrrolo[2,3-d]pyrimidine], for which the pest or weed control at 1000 g/ha (in [1]; in [2]; with Solanum nigrum (SOLNI) [3]; with Setaria faberi (SETFA) [4]; in test [5]; in [6]) was 0% each time. The pest or weed control at 1000 g/ha (in [7]; in the test with Solanum nigrum (SOLNI) [8]; in test [9]; in the test on Setaria faberi (SETFA) [10]; in test [11]; in [12]) was 0% in each case.

On to `COC(=O)c1nc(-c2ccc(Cl)c(OC)c2F)cc2c1c(C)cn2S(=O)(=O)c1ccc(C)cc1` [Compound 40-64, 6-(4-Chloro-2-fluoro-3-methoxyphenyl)-4-methoxycarbonyl-3-methyl-1-(4-methylphenyl-sulphonyl)-1H-pyrrolo[3,2-c]pyridine], for which the pest or weed control at 1000 g/ha in test [1] is 0%; in [2], 0%; in the test on Solanum nigrum (SOLNI) [3], 60%; in the test on Setaria faberi (SETFA) [4], 0%; in test [5], 0%; in [6] it was 50%. Also, the pest or weed control at 1000 g/ha in test [7] is 0%; in the test with Solanum nigrum (SOLNI) [8], 40%; in test [9] it was 10%; in the test with Setaria faberi (SETFA) [10], 10%; in [11], 0%; in [12], 0%.

For `CCCCCC(C)OC(=O)c1nc(-c2ccc(Cl)c(OC)c2F)cc2[nH]cc(C)c12` (stereo not drawn) [Compound 22-79, 6-(4-Chloro-2-fluoro-3-methoxyphenyl)-4-(hept-2-yloxycarbonyl)-3-methyl-1H-pyrrolo[3,2-c]pyridine], the pest or weed control at 1000 g/ha came to 10% in test [1]; 0% in [2]; 70% in the test on Solanum nigrum (SOLNI) [3]; 10% in the test on Setaria faberi (SETFA) [4]; 40% in [5]; 40% in test [6]. Moreover, the pest or weed control at 1000 g/ha in [7] was found to be 10%; in the test on Solanum nigrum (SOLNI) [8], 50%; in [9], 10%; in the test with Setaria faberi (SETFA) [10], 20%; in [11], 10%; in test [12], 30%.

For the compound `O=C(O)c1nc(-c2ccc(Cl)c(F)c2)nc2c1ccn2Cc1ncccc1Cl` [Compound 14-17, 4-Carboxy-2-(4-chloro-3-fluorophenyl)-7-(3-chloropyrid-2-yl-methyl)-7H-pyrrolo[2,3-d]pyrimidine], the pest or weed control at 1000 g/ha in test [1] came to 0%; in test [2] it was 0%; in the test on Solanum nigrum (SOLNI) [3], 40%; in the test with Setaria faberi (SETFA) [4], 0%; in test [5] it was 0%; in [6], 10%. For the same compound, the pest or weed control at 1000 g/ha (in test [7]; in the test on Solanum nigrum (SOLNI) [8]; in test [9]; in the test with Setaria faberi (SETFA) [10]; in [11]; in [12]) was 0% in each case.

In the case of `Cc1cc2c(C(=O)O)nc(-c3ccc(Cl)c(F)c3)nc2n1Cc1ccco1` [Compound 11-21, 4-Carboxy-2-(4-chloro-3-fluorophenyl)-7-(2-furanyl-methyl)-6-methyl-7H-pyrrolo[2,3-d]pyrimidine], the pest or weed control at 1000 g/ha in test [1] is 0%; in test [2], 0%; in the test with Solanum nigrum (SOLNI) [3] it was 50%; in the test on Setaria faberi (SETFA) [4], 0%; in test [5], 0%; in test [6] it was 20%. The pest or weed control at 1000 g/ha (in test [7]; with Solanum nigrum (SOLNI) [8]; in test [9]; in the test on Setaria faberi (SETFA) [10]; in test [11]; in [12]) was 0% each time.

`COC(=O)c1nc(-c2ccc(Cl)c(OC)c2F)nc2c1cc(C)n2Cc1ccccc1[N+](=O)[O-]` [Compound 8-66, 2-(4-Chloro-2-fluoro-3-methoxyphenyl)-4-methoxycarbonyl-6-methyl-7-(2-nitrophenyl-methyl)-7H-pyrrolo[2,3-d]pyrimidine]: the pest or weed control at 1000 g/ha amounted to 0% in [1]; 0% in test [2]; 30% in the test on Solanum nigrum (SOLNI) [3]; 0% in the test on Setaria faberi (SETFA) [4]; 0% in test [5]; 10% in test [6]. For the same compound, the pest or weed control at 1000 g/ha in [7] was 0%; in the test with Solanum nigrum (SOLNI) [8] it was 10%; in test [9], 0%; in the test with Setaria faberi (SETFA) [10] it was 0%; in [11], 10%; in test [12], 0%.

`Cc1cc2c(C(=O)O)nc(C3CC3)nc2n1Cc1ccccc1[N+](=O)[O-]` [Compound 8-5, 4-Carboxy-2-cyclopropyl-6-methyl-7-(2-nitrophenyl-methyl)-7H-pyrrolo[2,3-d]pyrimidine]: the pest or weed control at 1000 g/ha (in test [1]; in [2]; in the test with Solanum nigrum (SOLNI) [3]; in the test with Setaria faberi (SETFA) [4]; in test [5]; in test [6]) was 0% each time. In addition, the pest or weed control at 1000 g/ha (in [7]; with Solanum nigrum (SOLNI) [8]; in test [9]; in the test with Setaria faberi (SETFA) [10]; in test [11]; in test [12]) was 0% in each case.

For the compound `COC(=O)c1nc(-c2ccc(Cl)c(OC)c2F)nc2c1NC(c1ccccc1)C(c1ccccc1)N2` (stereo not drawn) [Compound 91-204, 2-(4-Chloro-2-fluoro-3-methoxyphenyl)-6,7-diphenyl-4-methoxycarbonyl-5,6,7,8-tetrahydropteridine], the pest or weed control at 1000 g/ha was found to be 0% in test [1]; 0% in test [2]; 80% with Solanum nigrum (SOLNI) [3]; 0% in the test on Setaria faberi (SETFA) [4]; 50% in [5]; 40% in test [6]. Also, the pest or weed control at 1000 g/ha came out at 0% in test [7]; 10% in the test on Solanum nigrum (SOLNI) [8]; 0% in [9]; 0% in the test on Setaria faberi (SETFA) [10]; 20% in [11]; 0% in test [12].

Regarding `COc1c(Cl)ccc(-c2nc(C(=O)O)c3c(n2)N(C(C)C)CCN3C(C)C)c1F` [Compound 93-165, 4-Carboxy-2-(4-chloro-2-fluoro-3-methoxyphenyl)-5,8-diisopropyl-5,6,7,8-tetrahydropteridine], the pest or weed control at 1000 g/ha in [1] came out at 10%; in test [2], 20%; with Solanum nigrum (SOLNI) [3], 30%; in the test on Setaria faberi (SETFA) [4] it was 30%; in test [5], 20%; in test [6], 20%. For the same compound, the pest or weed control at 1000 g/ha in test [7] was 0%; in the test with Solanum nigrum (SOLNI) [8] it was 0%; in [9], 0%; with Setaria faberi (SETFA) [10], 0%; in test [11], 0%; in [12] it was 10%.
